Measurements from US20250051347A1, “BIFUNCTIONAL CHIMERIC HETEROCYCLIC COMPOUND AND USE THEREOF AS ANDROGEN RECEPTOR DEGRADER” (Hinova Pharmaceuticals, Inc., priority 2021, published 2025).
Like-named read-outs stand apart in the source and are kept apart here.

Experiments:
[1] = molecular target: T1, androgen receptor (AR) splicing variant AR-v7 (Homo sapiens, UniProt P10275); assay: Degradation activity on androgen receptor splicing variant AR-v7 in 22RV1 cells (ELISA); format: cell-based; settings: AR-v7 degradation in 22RV1 cells, 48 h, class symbols
T1 construct: The degradation activity of compounds on AR-v7 in 22RV1 cells; host or cells: 22RV1 cells
T1 sequence (P10275 1-644 isoform P10275-3): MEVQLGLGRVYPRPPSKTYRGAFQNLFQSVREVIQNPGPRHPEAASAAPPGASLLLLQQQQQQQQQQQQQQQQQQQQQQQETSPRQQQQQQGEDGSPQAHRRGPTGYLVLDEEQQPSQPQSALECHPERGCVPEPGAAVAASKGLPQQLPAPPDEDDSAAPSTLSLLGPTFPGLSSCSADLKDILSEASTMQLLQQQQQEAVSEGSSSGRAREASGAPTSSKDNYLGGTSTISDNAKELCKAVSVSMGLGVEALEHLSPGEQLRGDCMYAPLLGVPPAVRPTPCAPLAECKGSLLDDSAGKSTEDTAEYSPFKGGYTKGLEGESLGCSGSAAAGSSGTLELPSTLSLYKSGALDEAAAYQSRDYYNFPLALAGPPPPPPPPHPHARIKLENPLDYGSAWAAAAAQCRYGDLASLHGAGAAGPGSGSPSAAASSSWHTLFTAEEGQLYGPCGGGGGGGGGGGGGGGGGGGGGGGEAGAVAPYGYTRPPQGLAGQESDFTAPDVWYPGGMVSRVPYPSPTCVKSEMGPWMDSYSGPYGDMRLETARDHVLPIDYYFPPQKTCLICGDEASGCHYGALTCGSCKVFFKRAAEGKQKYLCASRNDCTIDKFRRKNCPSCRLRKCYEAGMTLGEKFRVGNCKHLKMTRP

22RV1 cells = settings: Homo sapiens, 22Rv1, 144 h
[2] = read-out: 22RV1 IC50 (nM), 22RV1 cells, 6 days culture, CCK-8, OD 450 nm

Row | DC50 [1] [nM] | IC50 (22RV1 cells; [2]) [nM] | SMILES | IC50 (22RV1 cells; read-out: 22RV1 IC50 (nM)) [nM]
1 | 11 to 100 | 7 | CC(=O)c1ncc(Oc2ccc(C3(c4ccc(O[C@H]5C[C@H](Nc6ccc7c(c6)C(=O)N(C6CCC(=O)NC6=O)C7=O)C5)cc4)CC3)cc2)cn1 (stereo partly shown) [Example 378, 5-(((1r,3r)-3-(4-(1-(4-((2-acetylpyrimidin-5-yl)oxy)phenyl)cyclopropyl)phenoxy)cyclobutyl)amino)-2-(2,6-dioxopiperidin-3-yl)isoindolin-1,3-dione] | 
2 | < 10 | < 1 | Cc1nc(-c2ncc(Oc3ccc(C4(c5ccc(O[C@H]6C[C@H](Nc7ccc8c(c7)C(=O)N(C7CCC(=O)NC7=O)C8=O)C6)cc5)CCOCC4)cc3)cn2)no1 (stereo partly shown) [Example 382, 2-(2,6-dioxopiperidin-3-yl)-5-(((1r,3r)-3-(4-(4-(4-((2-(5-methyl-1,2,4-oxadiazol-3-yl)pyrimidin-5-yl)oxy)phenyl)tetrohydro-2H-pyran-4-yl)phenoxy)cyclobutyl)amino)isoindolin-1,3-dione] | 
3 | 11 to 100 | 56 | CC(C)(c1ccc(OCCCNc2ccc3c(c2)C(=O)N(C2CCC(=O)NC2=O)C3=O)cc1)c1ccc(OCc2ccnc(-n3ccnc3)n2)cc1 (stereo not shown) [Example 391, 5-((3-(4-(2-(4-((2-(1H-imidazol-1-yl)pyrimidin-4-yl)methoxy)phenyl)propan-2-yl)phenoxy)propyl)amino)-2-(2,6-dioxopiperidin-3-yl)isoindol-1,3-dione] | 
4 | 11 to 100 | 10 | CN1CCN(c2nccc(COc3ccc(C(C)(C)c4ccc(OC5CC(Nc6ccc7c(c6)C(=O)N(C6CCC(=O)NC6=O)C7=O)C5)cc4)cc3)n2)CC1 (stereo not shown) [Example 393] | 

Further lines, the compound ahead of its results:

Row | SMILES | DC50 [1] [nM] | IC50 (22RV1 cells; [2]) [nM] | IC50 (22RV1 cells; read-out: 22RV1 IC50 (nM)) [nM]
5 | CC(C)(c1ccc(OCc2ccnc(OC3COC3)n2)cc1)c1ccc(O[C@H]2C[C@H](Nc3ccc4c(c3)C(=O)N(C3CCC(=O)NC3=O)C4=O)C2)cc1 (stereo partly shown) [Example 369, 2-(2,6-dioxopiperidin-3-yl)-5-(((1r,3r)-3-(4-(2-(4-((2-(oxetane-3-yloxy)pyrimidin-4-yl)methoxy)phenyl)isopropan-2-yl)phenoxy)cyclobutyl)amino) isoindolin-1,3-dione] | < 10 | 6 | 
6 | Cc1nnc(-c2ncc(Oc3ccc(C4(c5ccc(O[C@H]6C[C@H](Nc7ccc8c(c7)C(=O)N(C7CCC(=O)NC7=O)C8=O)C6)cc5)CC4)cc3)cn2)o1 (stereo partly shown) [Example 379, 2-(2,6-dioxopiperidin-3-yl)-5-(((1r,3r)-3-(4-(1-(4-((2-(5-methyl-1,3,4-oxadiazol-2-yl)pyrimidin-5-yl)oxy)phenyl)cyclopropyl)phenoxy)cyclobutyl)amino)isoindolin-1,3-dione] | 11 to 100 | 17 | 
7 | CCC(CC)(c1ccc(Oc2cnc(-c3noc(C)n3)nc2)cc1)c1ccc(O[C@H]2C[C@H](Nc3ccc4c(c3)C(=O)N(C3CCC(=O)NC3=O)C4=O)C2)cc1 (stereo partly shown) [Example 380, 2-(2,6-dioxopiperidin-3-yl)-5-(((1r,3r)-3-(4-(3-(4-((2-(5-methyl-1,2,4-oxadiazol-3-yl)pyrimidin-5-yl)oxy)phenyl)pentan-3-yl)phenoxy)cyclobutyl)amino)isoindolin-1,3-dione] | < 10 | 5 | 
8 | CC(C)(c1ccc(OCCCNc2ccc3c(c2)C(=O)N(C2CCC(=O)NC2=O)C3=O)cc1)c1ccc(OCc2ccnc(N3CCC3)n2)cc1 (stereo not shown) [Example 383] | 11 to 100 |  | 34
9 | CC(C)(c1ccc(OCCCNc2ccc3c(c2)C(=O)N(C2CCC(=O)NC2=O)C3=O)cc1)c1ccc(OCc2ccnc(-n3cncn3)n2)cc1 (stereo not shown) [Example 389, 5-((3-(4-(2-(4-((2-(1H-1,2,4-triazol-1-yl)pyrimidin-4-yl)methoxy)phenyl)propan-2-yl)phenoxy)propyl)amino)-2-(2,6-dioxopiperidin-3-yl)isoindol-1,3-dione] | 11 to 100 | 54 | 
10 | CNc1nccc(COc2ccc(C(C)(C)c3ccc(OCCCNc4ccc5c(c4)C(=O)N(C4CCC(=O)NC4=O)C5=O)cc3)cc2)n1 (stereo not shown) [Example 390] | 11 to 100 | 26 | 
11 | CNc1nccc(COc2ccc(C(C)(C)c3ccc(OC4CC(Nc5ccc6c(c5)C(=O)N(C5CCC(=O)NC5=O)C6=O)C4)cc3)cc2)n1 (stereo not shown) [Example 392] | 11 to 100 | 21 | 
